According to patent US6387415B1, “Sequestered metal biocides using ionic polymeric stabilizing agents” (Bio-Lab, Inc., priority 1995, dated 2002):
Where two headings read alike, the source gives them in different places.

Experiments:
Format in all cases: cell-based
S. aureus = assay: MIC study against bacteria on microtiter plates; design: key: (−) indicates no bacterial growth was seen; (+) indicates bacterial growth was seen
Description: (§1) MIC data gives the minimum concentration of biocide needed to prevent growth of bacteria in a culture. Individual MIC's were determined by screening on microtiter plates. In order to determine the MIC's, 50 μl of phosphate water is added to each row in columns 2-12. Next, 100 μl of a biocide is added to column […]). Fifty microliters of the biocide is removed from column 1 and serially diluted from columns 2-11 using an eight tip pipettor (octapette). Finally, 50 μl of microbial inoculum is added to columns 1-11 (all rows) and column 12 (row A and E only). Column 12 serves as the row for sterility and viability controls. Bacterial inoculua contain about 1×10^9 colony forming units (cfu) per ml are prepared in 1⁄5 strength Nutrient broth. Bacterial microtiter plates are incubated at 37° C. for 48 hours. MIC's are determined by visual observation of the plates.

E. Coli = assay: MIC study against bacteria on microtiter plates; design: key: (−) indicates no bacterial growth was seen; (+) indicates bacterial growth was seen
Description: as §1

Chlorella sp. = assay: MIC study against algae (visual growth after two weeks); design: key: (−) indicates no algae growth was seen; (+) indicates algae growth was seen
Description: (§2) MIC data gives the minimum concentration of biocide needed to prevent growth of the algae in a culture.
(§3) The MIC studies are performed in sterile glassware using both viability and sterility controls. An algae suspension is added to test tubes containing the appropriate amounts of test biocide and the tubes are incubated for two weeks under fluorescent lights (on a “12 hour on”/“12 hour off” lighting regimen). The cultures are then measured by visual observation to determine the presence of living algae.

Phormidium inudatum = assay: as above; design: key: (−) indicates no algae growth was seen; (+) indicates algae growth was seen
Description: as §2, §3

Phormidium sp. = assay: as above; design: key: (−) indicates no algae growth was seen; (+) indicates algae growth was seen
Description: as §2, §3

SMILES | bacterial growth, MIC results against S. aureus (S. aureus) | bacterial growth, MIC results against E. Coli (E. Coli) | algae growth, MIC results against Chlorella sp. (Chlorella sp.) | algae growth, MIC results against Phormidium inudatum (Phormidium inudatum) | algae growth, MIC results against Phormidium sp. (Phormidium sp.) | bacterial growth, MIC results against S. aureus (S. aureus; Silver Conc. 0.39 ppm) | bacterial growth, MIC results against S. aureus (S. aureus; Silver Conc. 0.78 ppm) | bacterial growth, MIC results against S. aureus (S. aureus; Silver Conc. 1.56 ppm) | bacterial growth, MIC results against S. aureus (S. aureus; Silver Conc. 12.5 ppm) | bacterial growth, MIC results against S. aureus (S. aureus; Silver Conc. 25 ppm) | bacterial growth, MIC results against E. Coli (E. Coli; Silver Conc. 0.39 ppm) | bacterial growth, MIC results against E. Coli (E. Coli; Silver Conc. 1.56 ppm) | bacterial growth, MIC results against E. Coli (E. Coli; Silver Conc. 3.1 ppm) | bacterial growth, MIC results against E. Coli (E. Coli; Silver Conc. 12.5 ppm) | bacterial growth, MIC results against E. Coli (E. Coli; Silver Conc. 25 ppm)
O=S(=O)([O-])[O-].[Cu+2] [Unsequestered Copper, copper sulfate] | − and + | − and + | − | − | − |  |  |  |  |  |  |  |  |  | 
[Ag] [Unsequestered Silver] |  |  |  |  |  | + | + | − | − | − | + | + | − | − | −
